Patent US12558356B2, “Immunophilin binding agents and uses thereof” (The Regents of the University of California, priority 2019, dated 2026)

Experiments:
MCF7 cells = test: FKBP dependence of Rapamycin/RapaLink-1 function in MCF7 cells; assay type: cell-based; details: MCF7 cells dosed at 50% confluency, 37° C., 24 h
Description: FIG. 4. […] MCF7 cells dosed at 50% confluency, 37° C., 24 h.

glioblastoma PDX = details: mice; Fan, Q. et al., 2017, Cancer Cell; cited from earlier work
Jurkat cells [1] = test: Drug washout, phosphotyrosine recovery (residence time in cells); assay type: cell-based; details: 100 nM for 1 h, then drug removed
Src / HA-FKBP12 = Src / HA-FKBP12 (Homo sapiens (Human), UniProt P12931+P62942); test: Co-immunoprecipitation of Src with HA-FKBP12 in Jurkat cell lysates; assay type: binding
[2] = biological target: T1, Src kinase domain and FKBP12 (Homo sapiens (Human), UniProt P12931+P62942); test: Ternary complex formation by size exclusion chromatography; assay type: binding; details: ~50 kDa complex
Csk = Csk (Homo sapiens (Human), UniProt P41240); test: In vitro kinase assay, ATP at apparent Km; assay type: biochemical
[3] = tested on: 139 kinases captured by the probe in Jurkat cells; test: XO44 chemoproteomic probe kinome occupancy in live cells; assay type: cell-based; details: 100 nM, among 139 kinases captured by XO44 in Jurkat cells
FKBP12 [4] = biological target: T2, FKBP12 (Homo sapiens (Human), UniProt P62942); test: FKBP12 binding
DDR2 = DDR2 (Homo sapiens (Human), UniProt Q16832); test: In vitro kinase assay, ATP at apparent Km; assay type: biochemical
[5] = tested on: p-Tyr signaling in Jurkat cells; test: Phosphotyrosine / TCR signaling in Jurkat cells (Western blot); assay type: cell-based
Description: Jurkat cells (1×10^6/mL) were treated with 100 nM of the indicated compounds for 1 h, then were washed 3 times with PBS and resuspended in culture media. Samples were taken at the indicated time points and lysed immediately.

Jurkat cells [6] = test: CD3 crosslinking (OKT3)-triggered T cell activation, phosphotyrosine Western blot; assay type: cell-based
[7] = tested on: panel of 485 protein kinases; test: Kinase selectivity profiling; assay type: biochemical; details: 485 kinases, 10 nM inhibitor, 10 μM FKBP12
[8] = biological target: T1, Src kinase domain and FKBP12; test: Ternary complex formation of Src, FKBP12 and compound; assay type: binding
Description: Fractions of 0.5 mL were collected and analyzed by SDS-PAGE.
Pulldown was performed with Jurkat cell lysate (1 mg/mL, 200 μL), supplemented with 2 μg HA-FKBP12.

FKBP12 [9] = biological target: T2, FKBP12; test: FKBP12 binding assay (fluorescence polarization); details: fluorescence polarization assay; read-out: Kd (binding to FKBP12)
[10] = biological target: T1, Src kinase domain and FKBP12; test: Differential scanning fluorimetry; assay type: binding
K562 cells [11] = test: Growth inhibition of K562 cells; assay type: cell-based
Description: The unique dependency of FK506-dasatinib on FKBP proteins implied that it may be exploited to modulate the function of these molecules. […]. Meanwhile, the blocker compound […] dasatinib-treated samples (FIG. 13A, lanes 2 and 5). […].

Src = Src (Homo sapiens (Human), UniProt P12931); assay type: biochemical
K562 cells [12] = test: Growth inhibition of K562 cells; assay type: cell-based; remark: listed apart in the source
Ras•Raf = Ras•Raf binding pulldown; details: 100 nM KRAS
Description: FIG. 57. […] Pulldown conditions: 100 nM KRAS, 50 μg/mL BSA, 20 mM HEPES 7.5, 150 mM NaCl, 5 mM MgCl2, 1 mM […], 1% NP-40. GppNHp loaded proteins were prepared by EDTA-mediated nucleotide exchange.

Ras•GDP / Sos = Ras•GDP / Sos (Homo sapiens (Human), UniProt P01112+P62937, M72C); test: HRAS/CypA ternary complex and Sos-mediated nucleotide exchange; assay type: biochemical
Description: FIG. 56. […] Assay conditions: 1 μM Ras•GDP, 1 μM Mant-GDP, 20 mM EPES 7.5, 150 mM NaCl, 10 mM EDTA or 1 μM Sos. 95A is synonymous to ZZY06-031.

KRAS^G12C and CypA = KRAS^G12C and CypA (Homo sapiens (Human), UniProt P01116+P62937, G12C); test: Complex of labeled KRAS G12C with CypA; assay type: binding
[13] = 10 μM recombinant FKBP12 in assay buffer
[14] = standard assay conditions, no FKBP12

DDR2, sequence (Q16832 22-855, species assumed): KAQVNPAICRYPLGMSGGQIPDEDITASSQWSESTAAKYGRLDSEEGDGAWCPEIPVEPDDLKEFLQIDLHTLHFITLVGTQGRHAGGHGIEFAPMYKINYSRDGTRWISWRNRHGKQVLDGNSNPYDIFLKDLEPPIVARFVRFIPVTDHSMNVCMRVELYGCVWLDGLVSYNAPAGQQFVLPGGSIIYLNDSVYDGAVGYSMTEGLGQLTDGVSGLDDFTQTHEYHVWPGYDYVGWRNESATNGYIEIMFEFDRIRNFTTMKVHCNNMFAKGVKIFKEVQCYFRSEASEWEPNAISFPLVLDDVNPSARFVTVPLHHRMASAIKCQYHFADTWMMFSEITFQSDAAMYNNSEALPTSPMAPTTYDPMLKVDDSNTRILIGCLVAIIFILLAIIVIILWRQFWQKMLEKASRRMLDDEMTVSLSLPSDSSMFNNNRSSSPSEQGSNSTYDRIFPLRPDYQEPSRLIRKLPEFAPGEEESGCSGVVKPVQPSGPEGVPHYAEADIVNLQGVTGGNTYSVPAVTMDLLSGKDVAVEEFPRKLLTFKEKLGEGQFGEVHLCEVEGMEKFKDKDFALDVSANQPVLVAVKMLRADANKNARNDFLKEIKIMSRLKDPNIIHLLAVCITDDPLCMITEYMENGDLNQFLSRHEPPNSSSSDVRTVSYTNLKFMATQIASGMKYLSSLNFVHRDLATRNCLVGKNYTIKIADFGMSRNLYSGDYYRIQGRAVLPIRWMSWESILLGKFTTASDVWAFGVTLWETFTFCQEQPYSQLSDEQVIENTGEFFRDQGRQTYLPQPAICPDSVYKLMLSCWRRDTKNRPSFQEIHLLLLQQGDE
T1 sequence (P12931 whole entry, looked up, species assumed, the tested form may be a part): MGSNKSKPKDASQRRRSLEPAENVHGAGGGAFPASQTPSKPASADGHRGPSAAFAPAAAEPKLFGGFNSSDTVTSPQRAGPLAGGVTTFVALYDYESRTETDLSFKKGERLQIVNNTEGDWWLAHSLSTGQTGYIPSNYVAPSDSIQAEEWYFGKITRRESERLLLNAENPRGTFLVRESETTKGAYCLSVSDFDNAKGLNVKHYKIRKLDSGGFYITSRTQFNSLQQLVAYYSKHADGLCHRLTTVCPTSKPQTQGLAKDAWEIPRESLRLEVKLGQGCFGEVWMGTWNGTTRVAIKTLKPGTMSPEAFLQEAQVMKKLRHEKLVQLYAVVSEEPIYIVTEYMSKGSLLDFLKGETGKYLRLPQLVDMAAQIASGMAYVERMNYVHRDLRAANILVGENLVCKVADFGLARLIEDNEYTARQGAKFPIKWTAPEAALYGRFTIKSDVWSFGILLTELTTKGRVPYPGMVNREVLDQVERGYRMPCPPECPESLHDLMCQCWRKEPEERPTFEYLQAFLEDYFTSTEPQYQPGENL
T1 sequence (P62942 whole entry, looked up, species assumed, the tested form may be a part): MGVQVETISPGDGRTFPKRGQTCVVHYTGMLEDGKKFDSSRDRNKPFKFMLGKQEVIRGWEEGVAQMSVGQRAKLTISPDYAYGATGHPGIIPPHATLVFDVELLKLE
T2 sequence (P62942 whole entry): as the sequence (P62942 whole entry, looked up, species assumed, the tested form may be a part) above
Csk, sequence (P41240 whole entry, species assumed): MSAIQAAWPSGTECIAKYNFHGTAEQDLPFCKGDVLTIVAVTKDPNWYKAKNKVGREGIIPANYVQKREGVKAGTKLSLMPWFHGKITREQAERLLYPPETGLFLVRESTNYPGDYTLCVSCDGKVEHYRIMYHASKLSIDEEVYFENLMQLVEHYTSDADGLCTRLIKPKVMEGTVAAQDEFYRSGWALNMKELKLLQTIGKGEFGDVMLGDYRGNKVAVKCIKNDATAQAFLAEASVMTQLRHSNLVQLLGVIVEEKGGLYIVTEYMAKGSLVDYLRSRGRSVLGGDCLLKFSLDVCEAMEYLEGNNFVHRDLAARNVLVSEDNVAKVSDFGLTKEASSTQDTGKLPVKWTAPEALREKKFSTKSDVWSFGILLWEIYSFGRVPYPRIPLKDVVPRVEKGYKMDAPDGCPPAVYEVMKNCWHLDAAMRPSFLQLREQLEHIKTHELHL
Src, sequence (P12931 whole entry, species assumed): as the sequence (P12931 whole entry, looked up, species assumed, the tested form may be a part) above
Src / HA-FKBP12, sequence (P12931 whole entry, looked up, the tested form may be a part): as the sequence (P12931 whole entry, looked up, species assumed, the tested form may be a part) above
Src / HA-FKBP12, sequence (P62942 whole entry, looked up, the tested form may be a part): as the sequence (P62942 whole entry, looked up, species assumed, the tested form may be a part) above

CO[C@@H]1C[C@@H]2CC[C@@H](C)[C@@](O)(O2)C(=O)C(=O)N2CCCC[C@@H]2C(=O)O[C@H]([C@H](C)C[C@H]2CC[C@H](OCCOCc3cn(CCOCCOCCOCCOCCOCCOCCOCCOCCC(=O)NCCCCn4nc(-c5ccc6oc(N)nc6c5)c5c(N)ncnc54)nn3)[C@H](OC)C2)CC(=O)[C@H](C)/C=C(\C)[C@H](O)[C@@H](OC)C(=O)[C@H](C)C[C@H](C)/C=C/C=C/C=C/1C [RapaLink-1]
dependence of function on FKBP (MCF7 cells): FKBP is essential for the function
growth of glioblastoma PDX (glioblastoma PDX): suppresses growth

CO[C@H]1C[C@@H](C)C/C(C)=C/[C@@H](CCCC(=O)N2CCN(c3cc(Nc4ncc(C(=O)Nc5c(C)cccc5Cl)s4)nc(C)n3)CC2)C(=O)C[C@H](O)[C@@H](C)[C@@H](/C(C)=C/[C@@H]2CC[C@@H](O)[C@H](OC)C2)OC(=O)[C@@H]2CCCCN2C(=O)C(=O)[C@]2(O)O[C@H]1[C@@H](OC)C[C@H]2C [FK506-dasatinib]
Time after drug washout to restored phosphotyrosine signal (Jurkat cells [1]): > 24 h
Co-immunoprecipitation of Src with HA-FKBP12 (Src / HA-FKBP12): co-immunoprecipitated
Complex formation of Src kinase domain and FKBP12 [2]: induced the formation of a stable complex
Potency of inhibition upon FKBP12 supplementation (Csk; [13]): equipotent
IC50 compared to dasatinib (Csk; [14]): more than ten-fold greater
Number of kinases inhibited >70% [3]: 9
kinase inhibition (Src, Csk and DDR2): attenuated kinase inhibition
FKBP12 binding (FKBP12 [4]): maintains potent FKBP12 binding
Extent of kinase inhibition at 1 μM (DDR2; 10 μM recombinant FKBP12, 1 μM inhibitor): failing to fully inhibit
Potency of inhibition upon FKBP12 supplementation (DDR2; [13]): inferior to dasatinib
IC50 compared to dasatinib (DDR2; [14]): more than ten-fold greater
inhibition of TCR signaling / cellular activity [5]: potently inhibits TCR signaling
cellular retention time ([5]; Jurkat cells, 1 h treatment then washout, monitored over 24 h): long cellular retention time
Inhibition of phosphotyrosine signaling in the presence of blocker (Jurkat cells [6]; 100 nM FK506-dasatinib + 10 μM RapaBlock): completely neutralized
Total phospho-tyrosine level and phosphorylation of TCR signaling proteins (Jurkat cells [6]; 100 nM, Jurkat cells stimulated with OKT3): dampened
Lowest effective concentration (Jurkat cells [6]; Jurkat cells stimulated with OKT3): ≤ 10 nM
EC50 (Jurkat cells [6]; Jurkat cells stimulated with OKT3, read-out: EC50 (phosphotyrosine signal)): 3.4 nM
Number of kinases inhibited >70% by both inhibitors [7]: 23
ternary complex formation [8]: forms a stable ternary complex
Kd (FKBP12 [9]): 23 nM
Stabilization of both proteins toward thermal denaturation [10]: to a greater extent than dasatinib alone
Fold increase of IC50 on addition of RapaBlock (K562 cells [11]; 10 μM RapaBlock): > 200 fold
IC50 (K562 cells [11]; absent ZZY05-026 (RapaBlock)): 0.053 nM
IC50 (K562 cells [11]; with 10 μM RapaBlock): 10.2 nM
Potency of inhibition upon FKBP12 supplementation (Src; [13]): equipotent
IC50 compared to dasatinib (Src; [14]): more than ten-fold greater
concentration inhibiting growth of K562 cells (K562 cells [12]): sub-nanomolar
growth inhibitory activity in presence of RapaBlock (K562 cells [12]; with RapaBlock): diminished by RapaBlock

C=CC(=O)Nc1cc(Cl)cc(NC(=O)c2cnn(-c3ccc(OCC(=O)N4CCN(C(=O)CCC[C@@H](C)[C@@H](O)[C@H]5C(=O)N[C@@H](CC)C(=O)N(C)CC(=O)N(C)[C@@H](CC(C)C)C(=O)N[C@@H](C(C)C)C(=O)N(C)[C@@H](CC(C)C)C(=O)N[C@@H](C)C(=O)N[C@H](C)C(=O)N(C)[C@@H](CC(C)C)C(=O)N(C)[C@@H](CC(C)C)C(=O)N(C)[C@@H](C(C)C)C(=O)N5C)CC4)cc3)c2C(F)(F)F)c1 [ZZY08-058]
Ras•Raf binding of HRAS•CypA•compound ternary complex (Ras•Raf): does not seem to impair Ras•Raf binding
ternary complex formation with HRAS and CypA (Ras•GDP / Sos): forms a ternary complex
Sos-mediated nucleotide exchange (Ras•GDP / Sos; 1 μM Ras•GDP, 1 μM Mant-GDP, 10 mM EDTA or 1 μM Sos): inhibits Sos-mediated nucleotide exchange

C=CC(=O)N1CCN(c2nc(NCCC(=O)NCCNC(=O)CCC[C@@H](C)[C@@H](O)[C@H]3C(=O)N[C@@H](CC)C(=O)N(C)CC(=O)N(C)[C@@H](CC(C)C)C(=O)N[C@@H](C(C)C)C(=O)N(C)[C@@H](CC(C)C)C(=O)N[C@@H](C)C(=O)N[C@H](C)C(=O)N(C)[C@@H](CC(C)C)C(=O)N(C)[C@@H](CC(C)C)C(=O)N(C)[C@@H](C(C)C)C(=O)N3C)nc3c(F)c(-c4c(O)cccc4F)c(Cl)cc23)CC1 [ZZY07-014]
melting curve of KRAS•CypA•compound complex (KRAS^G12C and CypA): 2-stage melting curve
